In US10538555B2, “Macrocyclic inhibitors of the PD-1/PD-L1 and CD80(B7-1)/PD-L1 protein/protein interactions” (BRISTOL-MYERS SQUIBB COMPANY, priority 2014, dated 2020) one finds IC50 data, which are given here for eleven compounds.

*1 amine or outer side, *2 acyl side, *3 side chain or, on linkers, in order; H or OH if unused. Where a SMILES comes first, the peptide text is derived from it. Bridges are numbered along the chain shown (N, C = ends). [ ]: non-standard residue; d: D form. ξ: configuration not given here. X3 = O=C(C[C@@H](CO)C(=O)[*:2])[C@H](Cc1c[nH]c2ccccc12)N[*:1]; Trp(1-CH2COOH) = N[C@@H](Cc1cn(CC(=O)O)c2ccccc12)C(=O)O; Trp(βS-Me) = C[C@@H](c1c[nH]c2ccccc12)[C@H](N)C(=O)O; X2 = NC(=O)C[C@H](N[*:1])C(=O)C1CCC[C@H]1C(=O)[*:2]; Phe(3,4,5-F3) = N[C@@H](Cc1cc(F)c(F)c(F)c1)C(=O)O; NMePhe(4-F) = CN[C@@H](Cc1ccc(F)cc1)C(=O)O; d(cisHyp) = O=C(O)[C@H]1C[C@@H](O)CN1; Bta = N[C@@H](Cc1csc2ccccc12)C(=O)O; Hyp = O=C(O)[C@@H]1C[C@@H](O)CN1; NMeF = CN[C@@H](Cc1ccccc1)C(=O)O; X1 = O=C([C@H]1COCCN1[*:1])[*:2]; dHyp = O=C(O)[C@H]1C[C@H](O)CN1; NMehSer = CN[C@@H](CCO)C(=O)O; NMeNle = CCCC[C@H](NC)C(=O)O; dNle = CCCC[C@@H](N)C(=O)O; dPip = O=C(O)[C@H]1CCCCN1; hSer = N[C@@H](CCO)C(=O)O; NMeA = CN[C@@H](C)C(=O)O; Orn = NCCC[C@H](N)C(=O)O; Dab = NCC[C@H](N)C(=O)O; Dap = NC[C@H](N)C(=O)O; ξC = NC(CS)C(=O)O

For this assay, the target named is T1, Human PD-L1/PD-1 (Homo sapiens, UniProt Q9NZQ7).
T1 construct: TVMV protease cleavage site (C); made in house; host or cells: HEK293T cells
T1 sequence (Q9NZQ7 with tags, fused parts or gaps): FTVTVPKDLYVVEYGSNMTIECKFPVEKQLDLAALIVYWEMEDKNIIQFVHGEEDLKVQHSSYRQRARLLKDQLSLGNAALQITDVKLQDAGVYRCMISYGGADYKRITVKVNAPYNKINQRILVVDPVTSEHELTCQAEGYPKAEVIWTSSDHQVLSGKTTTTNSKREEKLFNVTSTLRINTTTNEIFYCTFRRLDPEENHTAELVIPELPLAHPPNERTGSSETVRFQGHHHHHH
The assay can be described thus: HTRF Human PD-L1/PD-1 binding assay (PD-1-Ig/PD-L1-His). Conditions: PD-L1-His 10 nM, PD-1-Ig 20 nM; class symbol; read-out: HTRF Human PD-L1/PD-1 Binding Assay IC50 Range. In short, it runs like this: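 Competition of macrocyclic peptides for PD-1/PD-L1 binding measured by HTRF in dPBS containing 0.1% BSA and 0.05% Tween-20. Compound and PD-L1-His (10 nM final) incubated 15 min before PD-1-Ig (20 nM final) and a further 15 min.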
A general note: In TR-FRET formats the signal depends on donor and acceptor labels being close together.
Consider `CCCC[C@H]1C(=O)N(C)[C@@H](CCCC)C(=O)N[C@@H](CC(C)C)C(=O)N[C@H](C(=O)NCC(N)=O)CSCC(=O)N[C@@H](Cc2ccc(O)cc2)C(=O)N(C)[C@@H](C)C(=O)N[C@@H](CC(=O)O)C(=O)N2CCC[C@H]2C(=O)N[C@@H](CN)C(=O)N[C@@H](CCC(N)=O)C(=O)N2C[C@H](O)C[C@H]2C(=O)N[C@@H](Cc2c[nH]c3ccccc23)C(=O)N[C@@H](CCN)C(=O)N[C@@H](Cc2cn(CC(=O)O)c3ccccc23)C(=O)N1C` [Example 5153] ({CH2CO}-Y[NMeA]DP[Dap]Q[Hyp]W[Dab][Trp(1-CH2COOH)][NMeNle][NMeNle]LCG-NH2; thioether N-14), for which the IC50 fell in the range of 1 to 9.9 nM. To `CCCC[C@H]1C(=O)N2C[C@H](O)C[C@@H]2C(=O)N[C@@H](CC(=O)O)C(=O)N[C@@H](C(C)C)C(=O)N(C)[C@@H](Cc2ccccc2)C(=O)N[C@@H](CCC(=O)O)C(=O)N2CCOC[C@@H]2C(=O)N[C@@H](Cc2c[nH]c3ccccc23)C(=O)N[C@@H](Cc2ccc(O)cc2)C(=O)N[C@@H](CCCN)C(=O)N[C@H](C(=O)NCC(N)=O)CSCC(=O)N[C@@H](Cc2cc(F)c(F)c(F)c2)C(=O)N(C)[C@@H](Cc2ccc(F)cc2)C(=O)N1C` [Example 10590] ({CH2CO}-[Phe(3,4,5-F3)][NMePhe(4-F)][NMeNle][d(cisHyp)]DV[NMeF]E[X1]WY[Orn]CG-NH2; thioether N-13) belongs 1 to 9.9 nM. To `CCCC[C@H]1C(=O)N(C)[C@@H](CCCC)C(=O)N[C@@H](CO)C(=O)NC(C(=O)NCC(N)=O)CSCC(=O)N[C@@H](Cc2ccc(O)cc2)C(=O)N(C)[C@@H](C)C(=O)N[C@@H](CC(N)=O)C(=O)N2CCC[C@H]2C(=O)N[C@@H](CC(N)=O)C(=O)N[C@@H](CC(C)C)C(=O)N2C[C@H](O)C[C@H]2C(=O)N[C@@H](Cc2c[nH]c3ccccc23)C(=O)N[C@@H](CO)C(=O)N[C@@H](Cc2csc3ccccc23)C(=O)N1C` (some centres unmarked) [Example 9143] ({CH2CO}-Y[NMeA]NPNL[Hyp]WS[Bta][NMeNle][NMeNle]S[ξC]G-NH2; thioether N-14) belongs 10 to 99.9 nM. `CCCC[C@H]1NC(=O)[C@H](Cc2c[nH]c3ccccc23)NC(=O)[C@H](CO)CC(=O)[C@H](Cc2c[nH]c3ccccc23)NC(=O)[C@@H]2C[C@@H](O)CN2C(=O)[C@H](CCC(N)=O)NC(=O)[C@H](Cc2cnc[nH]2)NC(=O)[C@@H]2CCCC2C(=O)[C@H](CC(N)=O)NC(=O)[C@H](C)N(C)C(=O)[C@H](Cc2ccc(O)cc2)NC(=O)CSCC(C(=O)NCC(N)=O)NC(=O)[C@H](CCC(=O)O)NC(=O)[C@H](CCCC)N(C)C1=O` (some centres unmarked) [Example 10127] ({CH2CO}-Y[NMeA][X2]HQ[Hyp][X3]W[dNle][NMeNle]E[ξC]G-NH2; thioether N-12): the IC50 lay within 1000 to 10000 nM. In the case of `COCC[C@H]1C(=O)N2C[C@@H](O)C[C@@H]2C(=O)N[C@@H](CC(=O)O)C(=O)N[C@@H](C(C)C)C(=O)N(C)[C@@H](Cc2ccccc2)C(=O)N[C@@H](CCC(N)=O)C(=O)N2CCOC[C@@H]2C(=O)N[C@@H](Cc2c[nH]c3ccccc23)C(=O)N[C@@H](Cc2ccc(O)cc2)C(=O)N[C@@H](CC(C)C)C(=O)N[C@H](C(=O)NCC(N)=O)CSCC(=O)N[C@@H](Cc2cc(F)c(F)c(F)c2)C(=O)N(C)[C@@H](Cc2ccccc2)C(=O)N1C` [Example 9266] ({CH2CO}-[Phe(3,4,5-F3)][NMeF][NMehSer](Me)[dHyp]DV[NMeF]Q[X1]WYLCG-NH2; thioether N-13) it was 1 to 9.9 nM; in that of `CCCC[C@H]1C(=O)N2CCC[C@@H]2C(=O)N[C@@H](CC(=O)O)C(=O)N[C@@H](C(C)C)C(=O)N(C)[C@@H](Cc2ccccc2)C(=O)N[C@@H](CCC(=O)O)C(=O)N2CCCC[C@@H]2C(=O)N[C@@H](Cc2c[nH]c3ccccc23)C(=O)N[C@@H](Cc2ccc(O)cc2)C(=O)N[C@@H](CC(C)C)C(=O)N[C@H](C(=O)NCC(N)=O)CSCC(=O)N[C@@H](Cc2cc(F)c(F)c(F)c2)C(=O)N(C)[C@@H](Cc2ccc(F)cc2)C(=O)N1C` [Example 10561] ({CH2CO}-[Phe(3,4,5-F3)][NMePhe(4-F)][NMeNle][dP]DV[NMeF]E[dPip]WYLCG-NH2; thioether N-13), 1 to 9.9 nM; in that of `CCCC[C@H]1C(=O)N(C)[C@@H](CCCC)C(=O)N[C@@H](CCC(=O)O)C(=O)N[C@H](C(=O)NCC(N)=O)CSCC(=O)N[C@@H](Cc2ccc(O)cc2)C(=O)N(C)[C@@H](C)C(=O)N[C@@H](CC(N)=O)C(=O)N2CCC[C@H]2C(=O)N[C@@H](CO)C(=O)N[C@@H](CCC(=O)O)C(=O)N2C[C@H](O)C[C@H]2C(=O)N[C@@H](Cc2c[nH]c3ccccc23)C(=O)N[C@@H](CCN)C(=O)N[C@@H](Cc2c[nH]c3ccccc23)C(=O)N1C` [Example 5167] ({CH2CO}-Y[NMeA]NPSE[Hyp]W[Dab]W[NMeNle][NMeNle]ECG-NH2; thioether N-14), 1 to 9.9 nM. In the case of `CCCC[C@H]1C(=O)N(C)[C@@H](CCCC)C(=O)N[C@@H](CCCNC(=N)N)C(=O)NC(C(=O)NCC(N)=O)CSCC(=O)N[C@@H](Cc2ccc(O)cc2)C(=O)N(C)[C@@H](C)C(=O)N[C@@H](CC(N)=O)C(=O)N2CCC[C@H]2C(=O)N[C@@H](CCO)C(=O)N[C@@H](CC(C)C)C(=O)N2CCC[C@H]2C(=O)N[C@@H](Cc2c[nH]c3ccccc23)C(=O)N[C@@H](CO)C(=O)N[C@@H](Cc2c[nH]c3ccccc23)C(=O)N1C` (some centres unmarked) [Example 9148] ({CH2CO}-Y[NMeA]NP[hSer]LPWSW[NMeNle][NMeNle]R[ξC]G-NH2; thioether N-14) it was 1000 to 10000 nM. To `CCCC[C@H]1C(=O)N(C)[C@@H](CCCC)C(=O)N[C@@H](C)C(=O)N[C@H](C(=O)NCC(N)=O)CSCC(=O)N[C@@H](Cc2ccc(O)cc2)C(=O)N2CCNC[C@H]2C(=O)N[C@@H](CC(N)=O)C(=O)N2CCC[C@H]2C(=O)N[C@@H](Cc2cnc[nH]2)C(=O)N[C@@H](CCC(N)=O)C(=O)N2C[C@H](O)C[C@H]2C(=O)N[C@@H](Cc2c[nH]c3ccccc23)C(=O)N[C@@H](CO)C(=O)N[C@@H](Cc2c[nH]c3ccccc23)C(=O)N1C` [Example 1275] belongs 1 to 9.9 nM; to `CCCC[C@H]1C(=O)N(C)[C@@H](CCCC)C(=O)N[C@@H](CCCN)C(=O)N[C@H](C(=O)NCC(N)=O)CSCC(=O)N[C@@H](Cc2ccc(O)cc2)C(=O)N(C)[C@@H](C)C(=O)N[C@@H](CC(=O)O)C(=O)N2CCC[C@H]2C(=O)N[C@@H](Cc2cnc[nH]2)C(=O)N[C@@H](CCC(=O)O)C(=O)N2C[C@H](O)C[C@H]2C(=O)N[C@@H](Cc2c[nH]c3ccccc23)C(=O)N[C@@H](CO)C(=O)N[C@@H](Cc2cn(CC(=O)O)c3ccccc23)C(=O)N1C` [Example 6269] ({CH2CO}-Y[NMeA]DPHE[Hyp]WS[Trp(1-CH2COOH)][NMeNle][NMeNle][Orn]CG-NH2; thioether N-14), 10 to 99.9 nM. For the compound `CCCC[C@H]1C(=O)N[C@@H](CC(=O)O)C(=O)N2CCC[C@H]2C(=O)N[C@@H](Cc2c[nH]cn2)C(=O)N[C@@H](CCC(N)=O)C(=O)N2C[C@H](O)C[C@H]2C(=O)N[C@@H]([C@@H](C)c2c[nH]c3ccccc23)C(=O)N[C@@H](CO)C(=O)N[C@@H](Cc2c[nH]c3ccccc23)C(=O)N(C)[C@@H](C)C(=O)N(C)[C@@H](C)C(=O)N[C@@H](C)C(=O)N[C@H](C(=O)NCC(N)=O)CSCC(=O)N[C@@H](Cc2ccc(O)cc2)C(=O)N1C` [Example 10539] ({CH2CO}-Y[NMeNle]DPHQ[Hyp][Trp(βS-Me)]SW[NMeA][NMeA]ACG-NH2; thioether N-14), the IC50 lay in the range of 1000 to 10000 nM.
